Here are results for 13 molecules from patent US11447466B2, “Substituted indole compounds useful as inhibitors of TLR7/8/9” (BRISTOL-MYERS SQUIBB COMPANY, priority 2017, dated 2022).

Type in all cases: cell-based
The target of one test is T1, human TLR9 (Homo sapiens, UniProt Q9NR96).
T1 construct: host or cells: HEK-Blue cells
T1 sequence (Q9NR96 26-1032): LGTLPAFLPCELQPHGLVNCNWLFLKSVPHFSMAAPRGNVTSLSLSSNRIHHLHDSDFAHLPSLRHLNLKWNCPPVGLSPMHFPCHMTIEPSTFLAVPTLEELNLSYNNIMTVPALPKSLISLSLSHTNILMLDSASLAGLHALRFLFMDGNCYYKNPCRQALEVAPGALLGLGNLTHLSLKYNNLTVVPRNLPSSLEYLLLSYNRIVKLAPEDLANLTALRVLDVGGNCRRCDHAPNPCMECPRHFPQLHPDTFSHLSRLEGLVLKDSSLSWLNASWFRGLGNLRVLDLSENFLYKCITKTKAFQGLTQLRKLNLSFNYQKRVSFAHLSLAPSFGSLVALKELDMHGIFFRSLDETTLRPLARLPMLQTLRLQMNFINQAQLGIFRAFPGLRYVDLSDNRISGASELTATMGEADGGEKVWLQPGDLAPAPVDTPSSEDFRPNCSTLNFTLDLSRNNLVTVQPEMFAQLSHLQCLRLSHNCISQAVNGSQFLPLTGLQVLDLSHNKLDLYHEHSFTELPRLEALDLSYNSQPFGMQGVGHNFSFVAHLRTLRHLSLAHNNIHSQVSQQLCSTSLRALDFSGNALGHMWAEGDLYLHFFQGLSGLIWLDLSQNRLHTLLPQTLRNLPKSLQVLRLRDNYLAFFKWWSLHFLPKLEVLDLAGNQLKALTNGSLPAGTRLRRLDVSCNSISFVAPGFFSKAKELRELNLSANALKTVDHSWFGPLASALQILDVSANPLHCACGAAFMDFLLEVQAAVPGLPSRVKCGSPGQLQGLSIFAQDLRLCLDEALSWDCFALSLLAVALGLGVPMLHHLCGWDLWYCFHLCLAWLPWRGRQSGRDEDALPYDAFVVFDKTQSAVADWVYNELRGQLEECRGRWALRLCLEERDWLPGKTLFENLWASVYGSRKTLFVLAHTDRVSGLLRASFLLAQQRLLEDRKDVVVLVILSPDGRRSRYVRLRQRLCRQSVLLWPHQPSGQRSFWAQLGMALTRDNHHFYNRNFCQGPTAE
Kind of test: TLR9 inhibition reporter assay (HEK-Blue SEAP reporter, ODN2006 stimulation). Conditions: HEK-Blue cells overexpressing human TLR9, SEAP reporter, ODN2006 5 nM, 22 hour incubation. The method in brief:
(§1)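 HEK-Blue cells overexpressing human TLR7, TLR8 or TLR9 carry a SEAP reporter driven by NF-κB/AP-1 sites. Compounds (0.05 nM–50 μM) were preincubated 30 min at room temperature, then cells were stimulated with gardiquimod 7.5 μM (TLR7), R848 15.9 μM (TLR8) or ODN2006 5 nM (TLR9) for 22 h at 37 °C.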

The next test addresses T2, human TLR7 (Homo sapiens, UniProt Q9NYK1).
T2 construct: host or cells: HEK-Blue cells
T2 sequence (Q9NYK1 27-1049): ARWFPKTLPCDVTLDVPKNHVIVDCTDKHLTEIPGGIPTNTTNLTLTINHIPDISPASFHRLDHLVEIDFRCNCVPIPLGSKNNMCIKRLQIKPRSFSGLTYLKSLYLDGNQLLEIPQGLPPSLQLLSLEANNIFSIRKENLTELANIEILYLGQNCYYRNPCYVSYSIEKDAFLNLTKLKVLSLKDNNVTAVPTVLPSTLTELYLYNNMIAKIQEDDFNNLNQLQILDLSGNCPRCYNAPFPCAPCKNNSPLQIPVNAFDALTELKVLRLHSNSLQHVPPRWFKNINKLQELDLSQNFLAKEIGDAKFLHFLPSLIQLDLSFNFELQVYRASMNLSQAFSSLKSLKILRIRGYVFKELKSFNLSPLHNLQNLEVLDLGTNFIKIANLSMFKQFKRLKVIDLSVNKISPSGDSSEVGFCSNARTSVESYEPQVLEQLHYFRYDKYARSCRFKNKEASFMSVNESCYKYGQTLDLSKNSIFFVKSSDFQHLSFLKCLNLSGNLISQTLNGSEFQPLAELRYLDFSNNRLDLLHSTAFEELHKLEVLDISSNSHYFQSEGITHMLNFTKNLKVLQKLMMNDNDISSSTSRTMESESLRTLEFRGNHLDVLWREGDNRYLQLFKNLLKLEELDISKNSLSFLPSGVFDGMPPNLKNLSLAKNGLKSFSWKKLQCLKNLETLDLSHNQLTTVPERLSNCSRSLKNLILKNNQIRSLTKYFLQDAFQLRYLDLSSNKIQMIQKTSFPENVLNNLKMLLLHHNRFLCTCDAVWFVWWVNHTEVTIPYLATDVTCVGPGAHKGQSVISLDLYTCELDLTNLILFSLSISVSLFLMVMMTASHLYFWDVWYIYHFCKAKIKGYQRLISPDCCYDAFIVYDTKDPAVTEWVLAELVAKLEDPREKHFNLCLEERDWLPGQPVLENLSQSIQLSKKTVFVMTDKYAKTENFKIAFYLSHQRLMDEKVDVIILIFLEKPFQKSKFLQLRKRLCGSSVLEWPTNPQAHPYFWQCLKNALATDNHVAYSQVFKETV
The test is described as follows: TLR7 inhibition reporter assay (HEK-Blue SEAP reporter, gardiquimod stimulation). Conditions: HEK-Blue cells overexpressing human TLR7, SEAP reporter, gardiquimod 7.5 μM, 22 hour incubation. A digest of the protocol: as §1
In general terms: Reporter assays use an easily measured gene product as a stand-in for the process of interest.

The next test addresses T3, human TLR8 (Homo sapiens, UniProt Q9NR97).
T3 construct: host or cells: HEK-Blue cells
T3 sequence (Q9NR97 27-1041): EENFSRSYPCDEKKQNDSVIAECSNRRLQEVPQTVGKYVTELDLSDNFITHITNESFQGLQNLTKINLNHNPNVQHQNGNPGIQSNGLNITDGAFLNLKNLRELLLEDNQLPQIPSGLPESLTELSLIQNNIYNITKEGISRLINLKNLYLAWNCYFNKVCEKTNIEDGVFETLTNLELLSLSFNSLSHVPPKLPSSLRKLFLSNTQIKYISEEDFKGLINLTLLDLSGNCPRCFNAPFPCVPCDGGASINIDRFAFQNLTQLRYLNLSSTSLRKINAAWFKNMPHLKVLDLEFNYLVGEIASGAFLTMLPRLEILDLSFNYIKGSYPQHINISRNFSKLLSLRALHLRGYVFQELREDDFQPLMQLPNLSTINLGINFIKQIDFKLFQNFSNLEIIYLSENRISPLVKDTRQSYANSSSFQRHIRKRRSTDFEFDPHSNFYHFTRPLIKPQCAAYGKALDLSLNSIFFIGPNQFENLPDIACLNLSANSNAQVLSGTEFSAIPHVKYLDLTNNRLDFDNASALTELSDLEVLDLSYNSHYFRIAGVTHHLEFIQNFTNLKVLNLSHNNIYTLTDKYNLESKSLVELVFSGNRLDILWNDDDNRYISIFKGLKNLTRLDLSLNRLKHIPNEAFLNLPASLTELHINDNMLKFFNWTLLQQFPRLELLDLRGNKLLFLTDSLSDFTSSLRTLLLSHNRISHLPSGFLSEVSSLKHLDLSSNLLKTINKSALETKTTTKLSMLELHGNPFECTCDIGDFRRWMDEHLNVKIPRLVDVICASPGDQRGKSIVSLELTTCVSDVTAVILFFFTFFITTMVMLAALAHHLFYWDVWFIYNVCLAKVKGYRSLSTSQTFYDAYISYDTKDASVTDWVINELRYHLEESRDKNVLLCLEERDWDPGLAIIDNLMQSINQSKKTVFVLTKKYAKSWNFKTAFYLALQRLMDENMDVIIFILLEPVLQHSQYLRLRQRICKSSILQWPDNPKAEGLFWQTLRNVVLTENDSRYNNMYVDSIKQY
Kind of test: TLR8 inhibition reporter assay (HEK-Blue SEAP reporter, R848 stimulation). Conditions: HEK-Blue cells overexpressing human TLR8, SEAP reporter, R848 15.9 μM, 22 hour incubation. A digest of the protocol: as §1

Consider `Cc1cc(-c2[nH]c3ccc(C4CCN(CC(=O)N(C)C)CC4)cc3c2C(C)C)c(C)n(C)c1=O` [Example 138, 2-(4-(3-isopropyl-2-(1,2,5-trimethyl-6-oxo-1,6-dihydropyridin-3-yl)-1H-indol-5-yl)piperidin-1-yl)-N,N-dimethylacetamide], for which the half-maximal inhibitory concentration (IC50) on human TLR9 stood at 7610 nM; on human TLR7 it was 17.5 nM; against human TLR8 it was 5.2 nM.
Take `CCCN1CCC(c2ccc3[nH]c(-c4cc(C)c(=O)n(C)c4)c(C(C)C)c3c2)CC1` [Example 224, 5-(3-isopropyl-5-(1-propylpiperidin-4-yl)-1H-indol-2-yl)-1,3-dimethylpyridin-2(1H)-one]: the IC50 on human TLR9 was 14000 nM; on human TLR7, 1.8 nM; against human TLR8, 4.5 nM.
Regarding `COc1cc(-c2[nH]c3ccc(C4CCN(C(=O)CN(C)C)CC4)cc3c2C(C)C)cn(C)c1=O` [Example 286, 5-(5-(1-(dimethylglycyl)piperidin-4-yl)-3-isopropyl-1H-indol-2-yl)-3-methoxy-1-methylpyridin-2(1H)-one], the IC50 on human TLR9 stood at 289 nM; against human TLR7, 5 nM; on human TLR8, 5.6 nM.
Take `Cc1nc(-c2[nH]c3ccc(C4CCN(C5CCCOC5)CC4)cc3c2C(C)C)cn(C)c1=O` (stereo not drawn) [Example 187, 5-(3-isopropyl-5-(1-(tetrahydro-2H-pyran-3-yl)piperidin-4-yl)-1H-indol-2-yl)-1,3-dimethylpyrazin-2(1H)-one]: the IC50 against human TLR9 worked out at 655 nM; against human TLR7, 85.4 nM; against human TLR8, 30.1 nM.
On the same counts, the results for `Cc1ccc(-c2cc(-c3[nH]c4ccc(C5CCNCC5)cc4c3C(C)C)cn(C)c2=O)cc1` [Example 55, 5-(3-isopropyl-5-(piperidin-4-yl)-1H-indol-2-yl)-1-methyl-3-(p-tolyl) pyridin-2(1H)-one] are 2290 nM, 13.9 nM and 203 nM.
Regarding `Cc1ncccc1-c1cc(-c2[nH]c3ccc(C4CCN(C(C)C)CC4)cc3c2C(C)C)cn(C)c1=O` [Example 344, 5-(3-isopropyl-5-(1-isopropylpiperidin-4-yl)-1H-indol-2-yl)-1,2′-dimethyl-[3,3′-bipyridin]-2(1H)-one], the figures for the IC50 against human TLR9, on human TLR7 and against human TLR8 were 322 nM, 11.5 nM and 26.5 nM, respectively.
On the same counts, the results for `Cc1cc(-c2[nH]c3ccc(C4CCN(C(C)C)CC4)cc3c2C(C)C)nn(C)c1=O` [Example 192, 6-(3-isopropyl-5-(1-isopropylpiperidin-4-yl)-1H-indol-2-yl)-2,4-dimethylpyridazin-3(2H)-one] are 2820 nM, 6.4 nM and 12 nM.
As for `Cc1cc(-c2[nH]c3ccc(C4CCN(CC5(O)CCOCC5)CC4)cc3c2C(C)C)c(C)n(C)c1=O` [Example 320, 5-(5-(1-((4-hydroxytetrahydro-2H-pyran-4-yl)methyl)piperidin-4-yl)-3-isopropyl-1H-indol-2-yl)-1,3,6-trimethylpyridin-2(1H)-one], the IC50 against human TLR9 came to 2310 nM; against human TLR7, 14.2 nM; at human TLR8, 1.7 nM.
For the molecule `Cc1nc(-c2[nH]c3ccc(C4CCN(C5CCOCC5)CC4)cc3c2C(C)C)cn(C)c1=O` [Example 185, 5-(3-isopropyl-5-(1-(tetrahydro-2H-pyran-4-yl)piperidin-4-yl)-1H-indol-2-yl)-1,3-dimethylpyrazin-2(1H)-one], the results for the half-inhibitory concentration (IC50) against human TLR9, at human TLR7 and on human TLR8 were 4320 nM, 61.3 nM and 19 nM, respectively.
For the molecule `Cc1cc(-c2[nH]c3ccc(C4CCN(Cc5ccc(OC(F)(F)F)cc5)CC4)cc3c2C(C)C)cn(C)c1=O` [Example 77, 5-(3-isopropyl-5-(1-(4-(trifluoromethoxy)benzyl)piperidin-4-yl)-1H-indol-2-yl)-1,3-dimethylpyridin-2(1H)-one], the values for the 50% inhibitory concentration (IC50) against human TLR9, on human TLR7 and against human TLR8 were 7850 nM, 123 nM and 50.6 nM, respectively.
On the same counts, the results for `Cc1cc(-c2[nH]c3ccc(C4CCN(C5CCOCC5)CC4)cc3c2C(C)C)cn(Cc2ccccc2)c1=O` [Example 263, 1-benzyl-5-(3-isopropyl-5-(1-(tetrahydro-2H-pyran-4-yl)piperidin-4-yl)-1H-indol-2-yl)-3-methylpyridin-2(1H)-one] are 1560 nM, 10.8 nM and 24.1 nM.
On the same counts, the results for `CC(C)c1c(-c2cc(CCC(C)(C)C)c(=O)n(C)c2)[nH]c2ccc(C3CCNCC3)cc12` [Example 61, 3-(3,3-dimethylbutyl)-5-(3-isopropyl-5-(piperidin-4-yl)-1H-indol-2-yl)-1-methylpyridin-2(1H)-one] are 2080 nM, 2190 nM and 2280 nM.
On the same counts, the results for `Cc1cc(-c2[nH]c3ccc(C4CCN(CC(C)(C)O)CC4)cc3c2C(C)C)cn(CC(C)C)c1=O` [Example 328, 5-(5-(1-(2-hydroxy-2-methylpropyl)piperidin-4-yl)-3-isopropyl-1H-indol-2-yl)-1-isobutyl-3-methylpyridin-2(1H)-one] are 5970 nM, 49.1 nM and 54.7 nM.

What is called IC50 is the concentration needed to halve the response being measured. A low value points to greater potency.
